Data: patent publication US20110124888A1, “STYRYLBENZOFURAN DERIVATIVES AS INHIBITORS FOR BETA-AMYLOID FIBRIL FORMATION AND PREPARATION METHOD THEREOF” (Korea Institute of Science and Technology, priority 2008, published 2011)
Structures can show the parent of a compound that is named as a salt. Where two headings read alike, the source gives them in different places. Each block holds one molecule with its values, some of them ahead of it.

Target: T1, beta-amyloid 42 (Aβ42) (Homo sapiens, UniProt P05067)
T1 construct: Beta-amyloid 42 (Aβ42) was dissolved in dimethylsulfoxide (DMSO)
Assay: Inhibitory effect on the formation of beta-amyloid fibrils in vitro (ThT fluorescence assay)
Assay type: biochemical
Conditions: for inhibition at 10 µM: read-out: % Inhibition (10 μM); for IC50: In vitro ThT analysis (Aβ42: 25 μM); for % inhibition against the beta-amyloid 42 formation compared with curcumin: Tables 1 to 6, relative to curcumin
Experimental: In order to investigate the inhibitory effect on the formation of beta-amyloid fibrils, the inventive compounds were examined as follows:
Beta-amyloid 42 (Aβ42) was dissolved in dimethylsulfoxide (DMSO) to form a […] Aβ42 stock solution. In addition, ThT (thioflavin T) was dissolved in distilled water to a concentration of 1 mM and subsequently diluted with 50 mM glycin buffer (pH 8.5) to yield a 5 μM ThT stock solution.
45 μL of PBS (phosphate buffer saline, pH 7.4) was added to each of a 96 well fluorescence microplate (white, F-bottom). 5 μL of the 250 μM Aβ42 stock solution was added to each well. The final concentration of each compound obtained in Examples was in a range of 10 to 0.001 μM by adding 2 μL of a solution, which is prepared by dissolving the subject compounds obtained in Examples in DMSO, to each well. At this time, the final concentration of Aβ42 in each well was 25 μM. The plate was then incubated at room temperature for 1 hr, and 150 μL of the 5 μM ThT stock solution was added to each well.
The fluorescence intensity of each well was determined with the multi label fluorescence counter (LS-55 Luminescence spectrometer, Perkin Elmer) at an excitation wavelength of 450 nm (excitation slit width: 10 nm) and an emission wavelength of 482 nm (emission slit width: 10 nm), while adjusting counting time to 1 second. The control group was prepared by adding PBS solution, Aβ42 and DMSO, without adding the inventive compound. % Inhibition on the formation of beta-amyloid fibrils was calculated in accordance with the following equation and IC5O was calculated by using GraphPad Prism version 4.03 Program.
% Inhibition=[1−(C−D)/(A−B)]×100 Equation 1%
A (control group): fluorescence intensity in a group treated with PBS solution, Aβ42, and DMSO
B (blank): fluorescence intensity in a group treated with PBS solution and DMSO
C (experimental group): fluorescence intensity in a group treated with PBS solution, Aβ42, DMSO, and the inventive compound
D (compensation value to the experimental group): fluorescence intensity in a group treated with PBS solution, DMSO, and the inventive compound

[1] = 10 μM compound, Aβ42 25 μM, experiment of Table 3
[2] = 10 μM compound, Aβ42 25 μM, experiment of Table 6
[3] = 10 μM compound, Aβ42 25 μM, experiment of Table 2
[4] = 10 μM compound, Aβ42 25 μM, experiment of Table 4
[5] = 10 μM compound, Aβ42 25 μM, experiment of Table 7
[6] = 10 μM compound, Aβ42 25 μM, experiment of Table 5

T1 sequence (P05067 672-713 limits assumed): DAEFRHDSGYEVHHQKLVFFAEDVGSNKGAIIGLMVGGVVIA

inhibition at 10 µM [1]: 57.2%
SMILES: COc1ccc(C=Cc2cc3ccc(OC)cc3o2)cc1 [Compound 58, 6-methoxy-2-(4-methoxystyryl)benzofuran]

inhibition at 10 µM [3]: 72.5%
IC50 (experiment of Table 2): 181 nM
% inhibition against the beta-amyloid 42 formation compared with curcumin: superior % inhibition
SMILES: COc1ccc(C=Cc2cc3cc(Cl)ccc3o2)cc1OC [Compound 34, 5-chloro-2-(3,4-dimethoxystyryl)benzofuran]

inhibition at 10 µM [4]: 62.4%
IC50 (experiment of Table 4): 5790 nM
SMILES: COc1ccc(C=Cc2cc3cc(I)ccc3o2)cc1OC [Compound 50, 5-iodo-2-(3,4-dimethoxystyryl)benzofuran]

inhibition at 10 µM [6]: 29.2%
SMILES: COc1cc2cc(C=Cc3ccc(N(C)C)cc3)oc2cc1OC [Compound 51, 5,6-dimethoxy-2-(4-dimethylaminostyryl)benzofuran]

IC50 (experiment of Table 1): 199 nM
% inhibition against the beta-amyloid 42 formation compared with curcumin: superior % inhibition
SMILES: CN(C)c1ccc(C=Cc2cc3cc(Cl)ccc3o2)cc1 [Compound 6, 5-chloro-2-(4-dimethylaminostyryl)benzofuran]

inhibition at 10 µM [3]: 69.7%
IC50 (experiment of Table 2): 15900 nM
SMILES: COc1ccc(C=Cc2cc3cc(C)ccc3o2)cc1 [Compound 42, 5-methyl-2-(4-methoxystyryl)benzofuran]

inhibition at 10 µM [1]: 58.3%
SMILES: COc1ccc(C=Cc2cc3ccccc3o2)cc1 [Compound 27, 2-(4-methoxystyryl)benzofuran]

inhibition at 10 µM [6]: 67.5%
IC50 (experiment of Table 5): 884 nM
% inhibition against the beta-amyloid 42 formation compared with curcumin: superior % inhibition
SMILES: COc1ccc(C=Cc2cc3ccc(C)cc3o2)cc1OC [Compound 65, 6-methyl-2-(3,4-dimethoxystyryl)benzofuran]

IC50 (experiment of Table 1): 800 nM
SMILES: CNc1ccc(C=Cc2cc3ccc(OC)cc3o2)cc1 [Compound 21, 6-methoxy-2-(4-methylaminostyryl)benzofuran]

IC50 (experiment of Table 1): 2190 nM
SMILES: CN(C)c1ccc(C=Cc2cc3ccc(F)cc3o2)cc1 [Compound 12, 6-fluoro-2-(4-dimethylaminostyryl)benzofuran]

inhibition at 10 µM [6]: 60.2%
SMILES: Nc1ccc(C=Cc2cc3ccc(O)cc3o2)cc1 [Compound 67, 6-hydroxy-2-(4-aminostyryl)benzofuran]

Second part, the molecule before the results:

SMILES: CNc1ccc(C=Cc2cc3cc(I)ccc3o2)cc1OC [Compound 48, 5-iodo-2-(3-methoxy-4-methylaminostyryl)benzofuran]
inhibition at 10 µM [2]: 74.2%
IC50 (experiment of Table 6): 1050 nM
% inhibition against the beta-amyloid 42 formation compared with curcumin: superior % inhibition

SMILES: COc1ccc(C=Cc2cc3cc(C)ccc3o2)cc1OC [Compound 43, 5-methyl-2-(3,4-dimethoxystyryl)benzofuran]
inhibition at 10 µM [3]: 69.4%
IC50 (experiment of Table 2): 10500 nM

SMILES: CN(C)c1ccc(/C=C/c2nc3ccccc3s2)cc1 [Comparative Example 2, 2-(4-dimethylaminophenylethenyl)benzothiazole, reference compound]
inhibition at 10 µM [5]: 25.7%
IC50 (experiment of Table 7): 31800 nM

SMILES: CNc1ccc(C=Cc2cc3ccccc3o2)cc1 [Compound 25, 2-(4-methylaminostyryl)benzofuran trifluoroacetate]
inhibition at 10 µM: 59%

SMILES: COc1cc(/C=C/C(=O)CC(=O)/C=C/c2ccc(O)c(OC)c2)ccc1O [curcumin, reference compound]
inhibition at 10 µM [3]: 92.1%
inhibition at 10 µM [4]: 79.7%
inhibition at 10 µM [6]: 67.8%
inhibition at 10 µM [2]: 98.1%
inhibition at 10 µM [5]: 76.4%
inhibition at 10 µM: 78.3%

SMILES: CCN(CC)c1ccc(C=Cc2cc3cc(C)ccc3o2)cc1 [Compound 41, 5-methyl-2-(4-diethylaminostyryl)benzofuran]
inhibition at 10 µM [1]: < 1%

SMILES: CNc1ccc(C=Cc2cc3ccc(OCCOCCOCCF)cc3o2)cc1 [Compound 66, 6-(2-(2-(2-fluoroethoxy)ethoxy)ethoxy)-2-(4-methylaminostyryl)benzofuran]
inhibition at 10 µM [6]: 61.7%

SMILES: CNc1ccc(C=Cc2cc3cc(Cl)ccc3o2)cc1OC [Compound 32, 5-chloro-2-(3-methoxy-4-methylaminostyryl)benzofuran]
inhibition at 10 µM [6]: 47.6%

SMILES: CNc1ccc(C=Cc2cc3cc(OC)c(OC)cc3o2)cc1OC [Compound 53, 5,6-dimethoxy-2-(3-methoxy-4-methylaminostyryl)benzofuran]
inhibition at 10 µM [6]: 56.2%
